According to patent US20070010671A1, “Novel quinazoline derivatives and methods of treatment related to the use thereof” (priority 2003, published 2007):

Each molecule was assayed against MCH receptor (Homo sapiens, UniProt Q99705) (assay: High throughput functional screening FLIPR/FDSS6000: inhibition of MCH-evoked intracellular Ca2+ changes). Settings: class by percent of control at 10^-7 M or IC50.
Assay type: cell-based
Summary of the method: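 Fluo4 fluorescence (Ex 488 nm, Em 530 nm) tracked MCH-evoked [Ca2+]i transients over 290 s by FLIPR or FDSS. Cells carried a constitutively active, non-endogenous receptor version. Compounds were added 3 min before a 50 nM MCH challenge.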
In the case of `CC(C)c1cccc(C(C)C)c1NC(=O)NC[C@H]1CC[C@@H](Nc2nc(N(C)C)c3ccccc3n2)CC1` [compound 468], the class is reported as 1 (Class 1: The value of percent of control at 10^−7 M was less than 40% or the value of IC50 was less than 50 nM.).
With `CN(C)c1nc(N[C@H]2CC[C@@H](CNC(=O)Nc3ccccc3OC(F)F)CC2)nc2ccccc12` [compound 469, N-[2-(difluoromethoxy)phenyl]-N′-[(cis-4-{[4-(dimethylamino)quinazolin-2-yl]amino}cyclohexyl)methyl]urea] the class was 2 (Class 2: The value of percent of control at 10^−7 M was from 40% to 60% or the value of IC50 was from 50 nM to 200 nM.).
For `COC(=O)c1ccccc1NC(=O)NC[C@H]1CC[C@@H](Nc2nc(N(C)C)c3ccccc3n2)CC1` [compound 470, methyl 2-[({[(cis-4-{[4-(dimethylamino)quinazoalin-2-yl]amino}cyclohexyl)methyl]amino}carbonyl)amino]benzoate], the class was 3 (Class 3: The value of percent of control at 10^−7 M was more than 60% or the value of IC50 was more than 200 nM.).
With `CSc1ccccc1NC(=O)NC[C@H]1CC[C@@H](Nc2nc(N(C)C)c3ccccc3n2)CC1` [compound 471, N-[(cis-4-{[4-(dimethylamino)quinazolin-2-yl]amino}cyclohexyl)methyl]-N′-[2-(methylthio)phenyl]urea] the class was 2 (Class 2: The value of percent of control at 10^−7 M was from 40% to 60% or the value of IC50 was from 50 nM to 200 nM.).
For `CN(C)c1nc(N[C@H]2CC[C@@H](CNC(=O)Nc3c(Cl)c(Cl)cc(Cl)c3Cl)CC2)nc2ccccc12` [compound 472, N-[(cis-4-{[4-(dimethylamino)quinazolin-2-yl]amino}cyclohexyl)methyl]-N′-(2,3,5,6-tetrachlorophenyl)urea], the class was 2 (Class 2: The value of percent of control at 10^−7 M was from 40% to 60% or the value of IC50 was from 50 nM to 200 nM.).
With `Cc1ccc([N+](=O)[O-])c(NC(=O)NC[C@H]2CC[C@@H](Nc3nc(N(C)C)c4ccccc4n3)CC2)c1C` [compound 473] the class was 1 (Class 1: The value of percent of control at 10^−7 M was less than 40% or the value of IC50 was less than 50 nM.).
`CN(C)c1nc(N[C@H]2CC[C@@H](CNC(=O)Nc3cc(Cl)c(Cl)cc3Cl)CC2)nc2ccccc12` [compound 474] was tested, and the class was 3 (Class 3: The value of percent of control at 10^−7 M was more than 60% or the value of IC50 was more than 200 nM.).
`CN(C)c1nc(N[C@H]2CC[C@@H](CNC(=O)Nc3c(F)cc(Br)cc3Br)CC2)nc2ccccc12` [compound 476, N-(2,4-dibromo-6-fluorophenyl)-N′-[(cis-4-{[4-(dimethylamino)quinazolin-2-yl]amino}cyclohexyl)methyl]urea] was tested, and the class was 1 (Class 1: The value of percent of control at 10^−7 M was less than 40% or the value of IC50 was less than 50 nM.).
`CN(C)c1nc(N[C@H]2CC[C@@H](CNC(=O)Nc3ccc(Br)cc3Br)CC2)nc2ccccc12` [compound 477] was tested, and the class was 3 (Class 3: The value of percent of control at 10^−7 M was more than 60% or the value of IC50 was more than 200 nM.).
In the case of `CN(C)c1nc(N[C@H]2CC[C@@H](CNC(=O)NCc3ccc(Cl)cc3Cl)CC2)nc2ccccc12` [compound 478, N-(2,4-dichlorobenzyl)-N′-[(cis-4-{[4-(dimethylamino)quinazolin-2-yl]amino}cyclohexyl)methyl]urea], the class is reported as 2 (Class 2: The value of percent of control at 10^−7 M was from 40% to 60% or the value of IC50 was from 50 nM to 200 nM.).
With `COc1ccc(NC(=O)NC[C@H]2CC[C@@H](Nc3nc(N(C)C)c4ccccc4n3)CC2)c(OC)c1` [compound 479] the class was 3 (Class 3: The value of percent of control at 10^−7 M was more than 60% or the value of IC50 was more than 200 nM.).
In the case of `Cc1ccc(C)c(NC(=O)NC[C@H]2CC[C@@H](Nc3nc(N(C)C)c4ccccc4n3)CC2)c1` [compound 481], the class is reported as 3 (Class 3: The value of percent of control at 10^−7 M was more than 60% or the value of IC50 was more than 200 nM.).
For `CN(C)c1nc(N[C@H]2CC[C@@H](CNC(=O)Nc3c(Br)cc(F)cc3Br)CC2)nc2ccccc12` [compound 482, N-(2,6-dibromo-4-fluorophenyl)-N′-[(cis-4-{[4-(dimethylamino)quinazolin-2-yl]amino}cyclohexyl)methyl]urea], the class was 1 (Class 1: The value of percent of control at 10^−7 M was less than 40% or the value of IC50 was less than 50 nM.).
For `CN(C)c1nc(N[C@H]2CC[C@@H](CNC(=O)Nc3c(Cl)cccc3Cl)CC2)nc2ccccc12` [compound 483, N-(2,6-dichlorophenyl)-N′-[(cis-4-{[4-(dimethylamino)quinazolin-2-yl]amino}cyclohexyl)methyl]urea], the class was 1 (Class 1: The value of percent of control at 10^−7 M was less than 40% or the value of IC50 was less than 50 nM.).
For `CCc1cccc(CC)c1NC(=O)NC[C@H]1CC[C@@H](Nc2nc(N(C)C)c3ccccc3n2)CC1` [compound 484, N-(2,6-diethylphenyl)-N′-[(cis-4-{[4-(dimethylamino)quinazolin-2-yl]amino}cyclohexyl)methyl]urea], the class was 1 (Class 1: The value of percent of control at 10^−7 M was less than 40% or the value of IC50 was less than 50 nM.).
`CN(C)c1nc(N[C@H]2CC[C@@H](CNC(=O)Nc3ccccc3Cc3ccccc3)CC2)nc2ccccc12` [compound 485] was tested, and the class was 3 (Class 3: The value of percent of control at 10^−7 M was more than 60% or the value of IC50 was more than 200 nM.).
For `Cc1ccc(Cl)c(NC(=O)NC[C@H]2CC[C@@H](Nc3nc(N(C)C)c4ccccc4n3)CC2)c1` [compound 486], the class was 2 (Class 2: The value of percent of control at 10^−7 M was from 40% to 60% or the value of IC50 was from 50 nM to 200 nM.).
With `CN(C)c1nc(N[C@H]2CC[C@@H](CNC(=O)Nc3cc([N+](=O)[O-])ccc3Cl)CC2)nc2ccccc12` [compound 487] the class was 3 (Class 3: The value of percent of control at 10^−7 M was more than 60% or the value of IC50 was more than 200 nM.).
In the case of `CN(C)c1nc(N[C@H]2CC[C@@H](CNC(=O)Nc3c(Cl)cccc3C(F)(F)F)CC2)nc2ccccc12` [compound 488], the class is reported as 1 (Class 1: The value of percent of control at 10^−7 M was less than 40% or the value of IC50 was less than 50 nM.).
In the case of `Cc1cccc(Cl)c1NC(=O)NC[C@H]1CC[C@@H](Nc2nc(N(C)C)c3ccccc3n2)CC1` [compound 489], the class is reported as 1 (Class 1: The value of percent of control at 10^−7 M was less than 40% or the value of IC50 was less than 50 nM.).
With `CN(C)c1nc(N[C@H]2CC[C@@H](CNC(=O)NCc3ccccc3Cl)CC2)nc2ccccc12` [compound 490, N-(2-chlorobenzyl)-N′-[(cis-4-{[4-(dimethylamino)quinazolin-2-yl]amino}cyclohexyl)methyl]urea] the class was 1 (Class 1: The value of percent of control at 10^−7 M was less than 40% or the value of IC50 was less than 50 nM.).
`CCOC(=O)c1ccccc1NC(=O)NC[C@H]1CC[C@@H](Nc2nc(N(C)C)c3ccccc3n2)CC1` [compound 491] was tested, and the class was 3 (Class 3: The value of percent of control at 10^−7 M was more than 60% or the value of IC50 was more than 200 nM.).
`CCc1cccc(C(C)C)c1NC(=O)NC[C@H]1CC[C@@H](Nc2nc(N(C)C)c3ccccc3n2)CC1` [compound 493, N-[(cis-4-{[4-(dimethylamino)quinazolin-2-yl]amino}cyclohexyl)methyl]-N′-(2-ethyl-6-isopropylphenyl)urea] was tested, and the class was 1 (Class 1: The value of percent of control at 10^−7 M was less than 40% or the value of IC50 was less than 50 nM.).
`CCc1ccccc1NC(=O)NC[C@H]1CC[C@@H](Nc2nc(N(C)C)c3ccccc3n2)CC1` [compound 494, N-[(cis-4-{[4-(dimethylamino)quinazolin-2-yl]amino}cyclohexyl)methyl]-N′-(2-ethylphenyl)urea] was tested, and the class was 1 (Class 1: The value of percent of control at 10^−7 M was less than 40% or the value of IC50 was less than 50 nM.).
For `CN(C)c1nc(N[C@H]2CC[C@@H](CNC(=O)Nc3cccc(C(F)(F)F)c3F)CC2)nc2ccccc12` [compound 495], the class was 3 (Class 3: The value of percent of control at 10^−7 M was more than 60% or the value of IC50 was more than 200 nM.).
For `CN(C)c1nc(N[C@H]2CC[C@@H](CNC(=O)Nc3cc(C(F)(F)F)ccc3F)CC2)nc2ccccc12` [compound 496], the class was 3 (Class 3: The value of percent of control at 10^−7 M was more than 60% or the value of IC50 was more than 200 nM.).
With `Cc1ccc(F)c(NC(=O)NC[C@H]2CC[C@@H](Nc3nc(N(C)C)c4ccccc4n3)CC2)c1` [compound 497] the class was 3 (Class 3: The value of percent of control at 10^−7 M was more than 60% or the value of IC50 was more than 200 nM.).
`CN(C)c1nc(N[C@H]2CC[C@@H](CNC(=O)Nc3cc([N+](=O)[O-])ccc3F)CC2)nc2ccccc12` [compound 498, N-[(cis-4-{[4-(dimethylamino)quinazolin-2-yl]amino}cyclohexyl)methyl]-N′-(2-fluoro-5-nitrophenyl)urea] was tested, and the class was 2 (Class 2: The value of percent of control at 10^−7 M was from 40% to 60% or the value of IC50 was from 50 nM to 200 nM.).
`CN(C)c1nc(N[C@H]2CC[C@@H](CNC(=O)NCc3ccccc3F)CC2)nc2ccccc12` [compound 499, N-[(cis-4-{[4-(dimethylamino)quinazolin-2-yl]amino}cyclohexyl)methyl]-N′-(2-fluorobenzyl)urea] was tested, and the class was 2 (Class 2: The value of percent of control at 10^−7 M was from 40% to 60% or the value of IC50 was from 50 nM to 200 nM.).
For `CN(C)c1nc(N[C@H]2CC[C@@H](CNC(=O)Nc3ccccc3I)CC2)nc2ccccc12` [compound 500, N-[(cis-4-{[4-(dimethylamino)quinazolin-2-yl]amino}cyclohexyl)methyl]-N′-(2-iodophenyl)urea], the class was 1 (Class 1: The value of percent of control at 10^−7 M was less than 40% or the value of IC50 was less than 50 nM.).
`Cc1cccc(C(C)C)c1NC(=O)NC[C@H]1CC[C@@H](Nc2nc(N(C)C)c3ccccc3n2)CC1` [compound 501] was tested, and the class was 1 (Class 1: The value of percent of control at 10^−7 M was less than 40% or the value of IC50 was less than 50 nM.).
